In patent US20240101570A1 (AMGEN INC., priority 2020, published 2024) one finds IC50 data, which are given here for 25 molecules.

Test [1] deals with HCT116 WT cells. Briefly: HCT116 WT cell proliferation / viability (CellTiter-Glo, 6 days). In kind it is cell-based. To be noted: Homo sapiens, HCT-116, 144 h, HCT116 WT cells, 6 days, CellTiter-Glo; read-out: HCT-116 WT IC50. In outline: (§1)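 Viability read by CellTiter-Glo after 6-day compound exposure of MTAP-null and wild-type HCT116 cells grown in RPMI 1640 with 10% FBS. Dosing used 1:3 steps from 1 or 10 μM (8-9 points) or 1:2 steps from 10 or 50 μM (22 points); IC50 taken where fitted curve crosses 50% of control.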
On the technique in general: In ATP-based viability assays light output follows the ATP content of the culture.

Test [2] has as its system HCT116 MTAP null cells. Description: HCT116 MTAP null cell proliferation / viability (CellTiter-Glo, 6 days). To be noted: HCT116-MTAP null, 144 h, HCT116 MTAP null cells, 6 days, CellTiter-Glo; read-out: HCT-116 MTAP null IC50. The test is classed as cell-based. The gist of the method:
as §1

Bounds are passed on as bounds.

Consider `CC(C)N(Cc1ccc(C(F)(F)F)cn1)C(=O)c1cc2c(cn1)nc(N)c1ncncc12` [Example 760, 5-amino-N-(2-propanyl)-N-((5-(trifluoromethyl)-2-pyridinyl)methyl)pyrimido[4,5-c][1,7]naphthyridine-9-carboxamide], for which the IC50 in test [1] was 6.1 µM; in test [2], 0.743 µM.
On to `Nc1nc2ccc(C(=O)N(Cc3ccc(Br)nn3)CC3CC3)cc2c2c1COC2` [Example 674, 4-amino-N-((6-bromo-3-pyridazinyl)methyl)-N-(cyclopropylmethyl)-1,3-dihydrofuro[3,4-c]quinoline-8-carboxamide], for which the 50% inhibitory concentration (IC50) in test [1] was 2.58 µM; in test [2], 0.073 µM.
For `CCN(Cc1cnc(C(F)(F)F)cn1)C(=O)c1ccc2nc(N)c3c(c2c1)CO[C@@H]3C` [Example 500, (3R)-4-amino-N-ethyl-3-methyl-N-((5-(trifluoromethyl)-2-pyrazinyl)methyl)-1,3-dihydrofuro[3,4-c]quinoline-8-carboxamide], in that order: 32.5 µM and 0.595 µM.
The matching figures for `COCC(C)N(Cc1ccc(C(F)(F)F)nn1)C(=O)c1cc2c3c(c(N)nc2cc1F)COC3` (racemic) [Example 488, 4-amino-7-fluoro-N-((2R)-1-methoxy-2-propanyl)-N-((6-(trifluoromethyl)-3-pyridazinyl)methyl)-1,3-dihydrofuro[3,4-c]quinoline-8-carboxamide and 4-amino-7-fluoro-N-((2S)-1-methoxy-2-propanyl)-N-((6-(trifluoromethyl)-3-pyridazinyl)methyl)-1,3-dihydrofuro[3,4-c]quinoline-8-carboxamide]: 0.696 µM and 0.049 µM.
The matching figures for `Cn1cc(N(Cc2ccc(C(F)(F)F)cn2)C(=O)c2ccc3nc(N)c4c(c3c2)COC4)cn1` [Example 884, 4-amino-N-(1-methyl-1H-pyrazol-4-yl)-N-((5-(trifluoromethyl)-2-pyridinyl)methyl)-1,3-dihydrofuro[3,4-c]quinoline-8-carboxamide]: 0.733 µM and 0.027 µM.
As for `COC[C@@H](C)N(Cc1ccc(Br)nn1)C(=O)c1cnc2nc(N)c3c(c2c1)COC3` [Example 681, 4-amino-N-((6-bromo-3-pyridazinyl)methyl)-N-((2R)-1-methoxy-2-propanyl)-1,3-dihydrofuro[3,4-c][1,8]naphthyridine-8-carboxamide], the half-inhibitory concentration (IC50) in test [1] amounted to 6.49 µM; in test [2], 0.367 µM.
The matching figures for `CN(Cc1ccc(C(F)(F)F)cc1)C(=O)c1cc2c(cn1)nc(N)c1cnn(C)c12` [Example 544, 4-amino-N,1-dimethyl-N-(4-(trifluoromethyl)benzyl)-1H-pyrazolo[4,3-c][1,7]naphthyridine-8-carboxamide]: 2.32 µM and 0.056 µM.
For `Cc1nn(C)c2c1c(N)nc1cc(F)c(C(=O)N(Cc3ccc(C(F)(F)F)cn3)C(C)C)cc12` [Example 538, 4-amino-7-fluoro-1,3-dimethyl-N-(2-propanyl)-N-((5-(trifluoromethyl)-2-pyridinyl)methyl)-1H-pyrazolo[4,3-c]quinoline-8-carboxamide], in that order: 0.735 µM and 0.04 µM.
For `CC(c1ccc(C(F)(F)F)cn1)N(C)C(=O)c1cc2c3c(c(N)nc2cn1)COC3` (racemic) [Example 709, 4-amino-N-methyl-N-((1R)-1-(5-(trifluoromethyl)-2-pyridinyl)ethyl)-1,3-dihydrofuro[3,4-c][1,7]naphthyridine-8-carboxamide and 4-amino-N-methyl-N-((1S)-1-(5-(trifluoromethyl)-2-pyridinyl)ethyl)-1,3-dihydrofuro[3,4-c][1,7]naphthyridine-8-carboxamide], in that order: 4.25 µM and 0.076 µM.
Regarding `CCN(Cc1ccc(C(F)(F)F)nn1)C(=O)c1cc2c(cc1F)nc(N)c1cnn(C)c12` [Example 555, 4-amino-N-ethyl-7-fluoro-1-methyl-N-((6-(trifluoromethyl)-3-pyridazinyl)methyl)-1H-pyrazolo[4,3-c]quinoline-8-carboxamide], the IC50 in test [1] was found to be 2.04 µM; in test [2], 0.023 µM.
Regarding `CCN(Cc1ccc(C(F)(F)F)cn1)C(=O)c1cc2c3c(c(N)nc2cc1Cl)COC3` [Example 420, 4-amino-7-chloro-N-ethyl-N-((5-(trifluoromethyl)-2-pyridinyl)methyl)-1,3-dihydrofuro[3,4-c]quinoline-8-carboxamide], the figures for the IC50 in test [1] and in test [2] were 8.36 µM and 0.248 µM, respectively.
For `CCN(Cc1ccc(C(F)(F)F)cn1)C(=O)c1ccc2nc(N)c3c(c2c1)CO[C@H]3CF` (single isomer, unassigned) [Example 596], in that order: 37.3 µM and 0.888 µM.
For `C[C@H]1OCc2c1c(N)nc1ccc(C(=O)N(Cc3ccc(C(F)(F)F)cn3)CC(F)(F)F)cc21` [Example 481, (3R)-4-amino-3-methyl-N-(2,2,2-trifluoroethyl)-N-((5-(trifluoromethyl)-2-pyridinyl)methyl)-1,3-dihydrofuro[3,4-c]quinoline-8-carboxamide], in that order: 5.71 µM and 0.074 µM.
Take `C[C@H]1OCc2c1c(N)nc1cnc(C(=O)N(Cc3ccc(C(F)(F)F)nn3)C3CC3)cc21` [Example 405, (3R)-4-amino-N-cyclopropyl-3-methyl-N-((6-(trifluoromethyl)-3-pyridazinyl)methyl)-1,3-dihydrofuro[3,4-c][1,7]naphthyridine-8-carboxamide]: the IC50 is over 10 µM in test [1] and 0.362 µM in test [2].
For `COC[C@@H](C)N(Cc1ccc(Cl)nn1)C(=O)c1cc2c3c(c(N)nc2cn1)[C@@H](C)OC3` [Example 308, (3R)-4-amino-N-((6-chloro-3-pyridazinyl)methyl)-N-((2R)-1-methoxy-2-propanyl)-3-methyl-1,3-dihydrofuro[3,4-c][1,7]naphthyridine-8-carboxamide], in that order: 5.09 µM and 0.124 µM.
The matching figures for `CCN(C(=O)c1cc2c(cc1F)nc(N)c1cnn(C)c12)[C@H](C)c1ccc(F)cn1` (single isomer, unassigned) [Example 875]: 1.42 µM and 0.025 µM.
For `CCN(C(=O)c1ccc2nc(N)c3c(c2c1)COC3)[C@@H](c1ccc(C(F)(F)F)nn1)C1CC1` [Example 783, 4-amino-N-((R)-cyclopropyl(6-(trifluoromethyl)-3-pyridazinyl)methyl)-N-ethyl-1,3-dihydrofuro[3,4-c]quinoline-8-carboxamide], in that order: 16.4 µM and 0.868 µM.
As to `C[C@H](c1ncccn1)N(Cc1ccc(Cl)cn1)C(=O)c1ccc2nc(N)c3c(c2c1)CCC3` [Example 622, 4-amino-N-((5-chloro-2-pyridinyl)methyl)-N-((1R)-1-(2-pyrimidinyl)ethyl)-2,3-dihydro-1H-cyclopenta[c]quinoline-8-carboxamide], the concentration for half-maximal inhibition (IC50) amounted to 0.156 µM in test [1] and 0.011 µM in test [2].
For `CC1OCc2c1c(N)nc1ccc(C(=O)N(Cc3ccc(C(F)(F)F)cn3)C3CC3(C)C)cc21` (centres unmarked) [Example 908, 4-amino-N-(2,2-dimethylcyclopropyl)-3-methyl-N-((5-(trifluoromethyl)pyridin-2-yl)methyl)-1,3-dihydrofuro[3,4-c]quinoline-8-carboxamide], in that order: 6.2 µM and 0.123 µM.
The matching figures for `CC[C@H](c1cncnc1)N(Cc1ccc(S(F)(F)(F)(F)F)cc1)C(=O)c1cc2c(cn1)nc(N)c1cnn(C)c12` (single isomer, unassigned) [Example 871]: 0.078 µM and 0.025 µM.
The matching figures for `C[C@H]1OCc2c1c(N)nc1cnc(C(=O)N(C)Cc3ccc(C4CC4)cn3)cc21` [Example 415, (3R)-4-amino-N-((5-cyclopropyl-2-pyridinyl)methyl)-N,3-dimethyl-1,3-dihydrofuro[3,4-c][1,7]naphthyridine-8-carboxamide]: 25.1 µM and 0.449 µM.
Turning to `CC(c1ncccn1)N(Cc1ccc(C2COC2)cc1)C(=O)c1ccc2nc(N)c3c(c2c1)COC3` (racemic) [Example 449, 4-amino-N-(4-(3-oxetanyl)benzyl)-N-((1R)-1-(2-pyrimidinyl)ethyl)-1,3-dihydrofuro[3,4-c]quinoline-8-carboxamide and 4-amino-N-(4-(3-oxetanyl)benzyl)-N-((1S)-1-(2-pyrimidinyl)ethyl)-1,3-dihydrofuro[3,4-c]quinoline-8-carboxamide], the IC50 in test [1] is 1.23 µM; in test [2], 0.042 µM.
The matching figures for `CCN(Cc1ccc(Cl)cn1)C(=O)c1ccc2nc(N)c3c(c2c1)CO[C@@H]3C` [Example 421, (3R)-4-amino-N-((5-chloro-2-pyridinyl)methyl)-N-ethyl-3-methyl-1,3-dihydrofuro[3,4-c]quinoline-8-carboxamide]: 10 µM and 0.116 µM.
The matching figures for `CCOc1ccc(CN(C(=O)c2cc3c4c(c(N)nc3cn2)[C@@H](C)OC4)C23CC(C2)C3)nn1` [Example 409, (3R)-4-amino-N-(bicyclo[1.1.1]pentan-1-yl)-N-((6-ethoxy-3-pyridazinyl)methyl)-3-methyl-1,3-dihydrofuro[3,4-c][1,7]naphthyridine-8-carboxamide]: 5.87 µM and 0.056 µM.
For `CC1OCc2c1c(N)nc1ccc(C(=O)N(Cc3ccc(C#N)cn3)C(C)C3CCOCC3)cc21` (centres unmarked) [Example 892, 4-amino-N-((5-cyanopyridin-2-yl)methyl)-3-methyl-N-(1-(tetrahydro-2H-pyran-4-yl)ethyl)-1,3-dihydrofuro[3,4-c]quinoline-8-carboxamide], in that order: 1.9 µM and 0.073 µM.

What is called IC50 is the midpoint of a concentration-inhibition curve.
